Assay results taken from publication PMC11298430, “Synthesis and In vitro evaluation of bichalcones as novel anti-toxoplasma agents” (Frontiers in Chemistry, 2024).
Like-named read-outs stand apart in the source and are kept apart here.

What was measured:
[1] = MTT cytotoxicity assay; format: cell-based; conditions: human
Protocol: (§1) The MTT [3-(4, 5-dimethylthiazole-2-yl)-2, 5-diphenyltetrazolium bromide] reduction assay ([Mosmann, 1983]) was used to quantify the cytotoxic effects of the examined chalcones and bichalcones on the host cells. To avoid edge effects, only the inner 60 wells of each plate were used. Briefly, 5 × 10^4 Hs27 cells per well were cultured in 96-well microtiter plates in Iscove’s modified Dulbecco’s medium (IMDM, Gibco–Thermo Fisher Scientific, Braunschweig, Germany, #12440053) with a volume of 100 µL per well and incubated overnight at 37°C until confluence. Different concentrations of the compounds (ranging from 200 μM to 0.09 µM) were then added to the Hs27 cells. Controls included untreated Hs27 cells treated with DMSO, and cells treated with staurosporine (0.031, 0.062, 0.125, 0.25, 0.5, 1 µM) (Merck, Darmstadt, Germany, #S4400), a natural product known for its potent activity as apoptosis inducer ([Belmokhtar et al., 2001]). After 24 h of incubation, the culture media were replaced with 100 µL of Dulbecco’s Modified Eagle Medium (DMEM) medium without red phenol (Gibco-Thermo Fisher Scientific, Braunschweig, Germany, #21041025) plus 10% heat-inactivated fetal bovine serum (FBS Standard, South America origin, fetal bovine serum, […] sterile filtered, PAN-Biotech, Aidenbach, Germany, #P30-3,306), and […] 2-mercaptoethanol (Gibco-Thermo Fisher Scientific, Braunschweig, Germany, #21985023). The experiment was performed following the manufacturer’s instructions (CyQuant MTT Cell Viability Assay Kit, Thermo Fisher Scientific, Braunschweig, Germany, #V-13154). Optical density (O.D.) was measured at 570 nm using a microplate reader (TECAN Sunrise, Männedorf, Switzerland). The half-maximal cytotoxic concentration (CC50) values of each compound against Hs27 cells relative to DMSO-treated samples were determined using GraphPad PRISM™ statistical software (version 9.5.1; San Diego, CA). In addition, the selectivity index (SI) of each compound was calculated from the ratio of CC50/IC50.

[2] = tested on: Toxoplasma gondii ME49 tachyzoites; assay: Toxoplasma gondii in vitro inhibition assay (3H-uracil incorporation); format: cell-based
[3] = tested on: human fibroblasts Hs27; assay: MTT cytotoxicity assay; format: cell-based; conditions: 24 h
Protocol: as §1

[4] = Stability experiments (reverse phase HPLC purity); format: physicochemical
Protocol: Table S3: Purity results of the stability experiments over a varying time span at different
Entry Variations Time Purity [%]
Table S4: Reverse Phase HPLC chromatogram of bichalcone 2ab (rac) in DMSO stock solution […]
Table S5: Reverse Phase HPLC chromatogram of bichalcone 2ab (rac) in DMSO stock solution
Table S6: Reverse Phase HPLC chromatogram of bichalcone 2ab (rac) in DMSO at -78 °C for […]

[5] = tested on: Toxoplasma gondii; set-up: method as in Touquet et al., 2018; conditions: literature value ref Touquet et al., 2018; cited from earlier work
[6] = Hs27 cells, MTT, 24 h, n = 6, read-out: CC50
[7] = Toxoplasma gondii, HS27, read-out: IC50 ± S.D.
[8] = Toxoplasma gondii, HS27, T. gondii ME49 tachyzoites in Hs27 host cells, 3H-uracil incorporation, n = 6, read-out: IC50 ± S.D.
[9] = T. gondii ME49 tachyzoites in Hs27 host cells, 3H-uracil incorporation, n = 6, read-out: IC50 ± S.D.

SMILES | CC50 at 24 h [1] [µM] | IC50 [2, 8] [µM] | also measured
COc1cc(O)c(C(=O)/C=C/c2ccc(N(C)C)cc2)c(OC)c1 [1bc] |  |  | CC50 at 24 h [1, 6]: > 200 µM; IC50 [2, 7]: > 50 µM
COc1ccc(/C=C/C(=O)c2c(OC)cc(OC)c(-c3c(OC)cc(OC)c(C(=O)/C=C/c4ccc(OC)cc4)c3O)c2O)cc1 [2ba] | > 200 | > 50 | 
COc1cc(C)cc(O)c1C(=O)/C=C/c1ccccc1Br [1ag] | > 200 | > 50 | 
COc1cc(C)cc(O)c1C(=O)/C=C/c1ccccc1 [1ab] | 133 ± 28 | 14.1 ± 2.62 | 
COc1ccc(/C=C/C(=O)c2c(OC)cc(C)c(-c3c(C)cc(OC)c(C(=O)/C=C/c4ccc(OC)cc4)c3O)c2O)cc1 [2aa] | > 200 | 6.63 ± 0.77 | 
COc1cc(C)c(-c2c(C)cc(OC)c(C(=O)/C=C/c3ccc(N(C)C)cc3)c2O)c(O)c1C(=O)/C=C/c1ccc(N(C)C)cc1 [2ac] | > 200 | > 50 | 
COc1cc(C)c(-c2c(C)cc(OC)c(C(=O)/C=C/c3ccccc3)c2O)c(O)c1C(=O)/C=C/c1ccccc1 (single isomer, unassigned) [(S a)-2ab] | > 200 |  | IC50 [2, 9]: 0.31 ± 0.03 µM
COc1cc(C)c(-c2c(C)cc(OC)c(C(=O)/C=C/c3ccccc3)c2O)c(O)c1C(=O)/C=C/c1ccccc1 (single isomer, unassigned) [(R a)-2ab] |  |  | CC50 [3]: > 200 µM; IC50 [2, 9]: 0.1 ± 0.01 µM
COc1cc(O)c(C(=O)/C=C/c2cccc(Br)c2)c(OC)c1 [1bf] | > 200 | 11.3 ± 0.61 | 
COc1cc(OC)c(-c2c(OC)cc(OC)c(C(=O)/C=C/c3ccc(N(C)C)cc3)c2O)c(O)c1C(=O)/C=C/c1ccc(N(C)C)cc1 [2bc] | > 200 | > 50 | 
COc1cc(C)c(-c2c(C)cc(OC)c(C(=O)/C=C/c3ccccc3)c2O)c(O)c1C(=O)/C=C/c1ccccc1 (racemic) [2ab] | > 200 | 0.11 ± 0.02 | Purity ([4]; 22 °C, DMSO, 24 h): 75.9%; Purity ([4]; 40 °C, DMSO, 24 h): 76.6%; Purity ([4]; 40 °C, MeOH, 24 h): 89.7%; Purity ([4]; 40 °C, MeOH, KOH, 24 h): 35.6%; Purity ([4]; -20 °C, DMSO, 6 months): 96.2%
COc1cc(C)c(-c2c(C)cc(OC)c(C(=O)/C=C/c3ccc(C(F)(F)F)cc3)c2O)c(O)c1C(=O)/C=C/c1ccc(C(F)(F)F)cc1 [2ad] | > 200 | 24.7 ± 3.52 | 
COc1cc(C)cc(O)c1C(=O)/C=C/c1cccc(Br)c1 [1af] | 134 ± 78 | 6.18 ± 0.55 | 
COc1cc(O)c(C(=O)/C=C/c2ccccc2)c(OC)c1 [1bb] | 87.8 ± 16 | 6.01 ± 2.54 | 
COc1cc(C)cc(O)c1C(=O)/C=C/c1ccc(N(C)C)cc1 [1ac] | > 200 | > 50 | 
COc1ccc(/C=C/C(=O)c2c(O)cc(OC)cc2OC)cc1 [1ba] | > 200 | 8.08 ± 2.06 | 

SMILES | CC50 at 24 h [1] [µM] | IC50 [2, 8] [µM] | also measured
COc1cc(C)c(-c2c(C)cc(OC)c(C(=O)/C=C/c3ccc(Br)cc3)c2O)c(O)c1C(=O)/C=C/c1ccc(Br)cc1 [2ae] | > 200 | 7.91 ± 1.14 | 
COc1cc(OC)c(-c2c(OC)cc(OC)c(C(=O)/C=C/c3ccccc3)c2O)c(O)c1C(=O)/C=C/c1ccccc1 [2bb] | > 200 | 9.75 ± 1.95 | 
COc1cc(C)cc(O)c1C(=O)/C=C/c1ccc(C(F)(F)F)cc1 [1ad] | > 200 | > 50 | 
COc1cc(C)c(-c2c(C)cc(OC)c(C(=O)/C=C/c3cccc(Br)c3)c2O)c(O)c1C(=O)/C=C/c1cccc(Br)c1 [2af] | > 200 | 30.5 ± 7.21 | 
COc1cc(O)c(C(=O)/C=C/c2ccc(Br)cc2)c(OC)c1 [1be] |  |  | CC50 at 24 h [1, 6]: > 200 µM; IC50 [2, 7]: > 50 µM
COc1cc(OC)c(-c2c(OC)cc(OC)c(C(=O)/C=C/c3ccc(C(F)(F)F)cc3)c2O)c(O)c1C(=O)/C=C/c1ccc(C(F)(F)F)cc1 [2bd] | > 200 | 3.09 ± 0.15 | 
COc1cc(OC)c(-c2c(OC)cc(OC)c(C(=O)/C=C/c3ccccc3Br)c2O)c(O)c1C(=O)/C=C/c1ccccc1Br [2bg] | > 200 | > 50 | 
COc1cc(OC)c(-c2c(OC)cc(OC)c(C(=O)/C=C/c3ccc(Br)cc3)c2O)c(O)c1C(=O)/C=C/c1ccc(Br)cc1 [2be] | > 200 | 8.55 ± 1.28 | 
COc1cc(OC)c(-c2c(OC)cc(OC)c(C(=O)/C=C/c3cccc(Br)c3)c2O)c(O)c1C(=O)/C=C/c1cccc(Br)c1 [2bf] | > 200 | 12.4 ± 2.09 | 
COc1cc(C)c(-c2c(C)cc(OC)c(C(=O)/C=C/c3ccccc3Br)c2O)c(O)c1C(=O)/C=C/c1ccccc1Br [2ag] | > 200 | 18.44 ± 0.1 | 
COc1cc(C)cc(O)c1C(=O)/C=C/c1ccc(Br)cc1 [1ae] | 190 ± 99 | 10.6 ± 1.05 | 
COc1cc(O)c(C(=O)/C=C/c2ccc(C(F)(F)F)cc2)c(OC)c1 [1bd] | > 200 | > 50 | 
CCc1nc(N)nc(N)c1-c1ccc(Cl)cc1 [PYR, pyrimethamine, reference compound] | > 100 | 0.22 ± 0.05 | IC50 [5]: 0.4 µM
COc1cc(O)c(C(=O)/C=C/c2ccccc2Br)c(OC)c1 [1bg] |  |  | CC50 at 24 h [1, 6]: 86.5 ± 72 µM; IC50 [2, 7]: 4.46 ± 0.46 µM
COc1ccc(/C=C/C(=O)c2c(O)cc(C)cc2OC)cc1 [1aa] | 180 ± 32 | 21.8 ± 3.07 | 
